In experiment [1] the test system is mouse fibro-sarcoma FsaR. In words: Cytotoxic effect on mouse fibro-sarcoma FsaR (crystal violet viability). The format is cell-based. The following applies: viable cells by absorbance at 590 nm after 24 hours with substance; XS100 = dosage 0.5 μg; variation max 10%. As to the method: (§1) An investigation of anti-tumor activity of the boroxine compound (XS) was conducted on cell lines of mouse fibro-sarcoma FsaR and mouse carcinoma SCC VII.
(§2) Cell lines (mouse fibro-sarcoma FsaR and mouse carcinoma SCC VII) were incubated at optimal conditions for 24 hours, followed by addition of tested substances in a dosage of 0.5 μg (XS100) and combinations with Li (lithium) and SNP (sodium-nitroprusside) Li (lithium) is blocker of GSK-3 (glycogen-synthetase-kinase), an enzyme involved in pathways that modulate cell's death. SNP (sodium-nitroprusside) is modulator of pro-apoptotic protein p53 (tumor suppressor protein).
(§3) Cells were additionally incubated for 24 hours in the presence of the substances. Later, cells were fixed by glutaraldehyde and stained in 0.1% crystal violet. Stain attached to the viable cells was extracted by 0.2% Triton-X 100 and extract absorbance was determined at 590 nm. Value of absorbance is proportional with viable cells number.
(§4) The following results have been obtained (the observed variation of the observed values are a maximum of 10%).

Experiment [2] relates to mouse carcinoma cells SCC VII. In words: Cytotoxic effect on mouse carcinoma cells SCC VII (crystal violet viability). In kind it is cell-based. The following applies: viable cells by absorbance at 590 nm after 24 hours with substance; XS100 = dosage 0.5 μg; variation max 10%. How it is done:
as §1, §2, §3, §4

As to K2[B3O3F4OH] [XS100], the “% of control” value in experiment [1] was 21 % of control; in experiment [2], 42 % of control.

The values above are taken from patent US8278289B2, “Boroxine composition for removal of skin changes” (priority 2006, dated 2012).
